Key:
[1] = Salt screen: HT-XRPD after accelerated aging conditions; format: physicochemical; details: solid form by HT-XRPD after 40° C., 75% RH for two days, code+number = crystalline salt polymorph, 0 = crystalline counter ion itself
Experimental: XRPD patterns were obtained using the Crystallics T2 high-throughput XRPD set-up. The plates were mounted on a Bruker General Area Detector Diffraction System (GADDS) equipped with a VÅNTEC-500 gas area detector corrected for intensity and geometric variations. The calibration of the measurement accuracy (peaks position) was performed using NIST SRM1976 standard (Corundum).
Data collection was carried out at room temperature using monochromatic CuKα radiation in the 2θ region between 1.5° and 41.5°, which is the most distinctive part of the XRPD pattern. The diffraction pattern of each well was collected in two 2θ ranges (1.5°≦2θ≦21.5° for the first frame, and 19.5°≦2θ≦41.5° for the second) with an exposure time of 90 s for each frame. No background subtraction or curve smoothing was applied to the XRPD patterns.
Approximately 175 mg of N^4-(cyclopropylmethyl)-6-[(3R)-3-(methylamino)pyrrolidin-1-yl]pyrimidine-2,4-diamine in 1-Butanol and Dichloromethane were combined with a slight molar excess of either solid or liquid counter ion. Samples were incubated at RT. After 5 days the solids were collected, dried under vacuum and analyzed by HT-XRPD (XRPD 1).
Subsequently, the solids were exposed to accelerated aging conditions (40° C., 75% RH) for two days and re-analyzed by HT-XRPD (XRPD 2). Crystalline salts (polymorphs) are indicated with the abbreviated counter ion code and a number (1, 2, etc.). The number zero (0) indicates the crystalline counter ion itself.

[2] = Dynamic vapor sorption (DVS) analysis; format: physicochemical; details: 25° C.
Experimental: Moisture sorption isotherms were collected on a DVS-1 system from Surface Measurement Systems (London, UK). Typical sample size is between 5 and 10 mg of solid material. The relative humidity was cycled between 40% to 0% (desorption), up to 95% (sorption), back to 0% RH (desorption) and up to 95% RH (sorption) in steps of 10% at a constant temperature of 25° C. with an initial stabilizing step at 40% RH for 6 hours.
(FIG. 9) The relative humidity (RH) was cycled between 40% to 0% (desorption), up to 95% (sorption) in steps of 10%. During the desorption, the dehydration step occurs when the RH goes below 10% RH. Water uptake is observed in between 0-20% RH (1.9% mass uptake) and 20-30% (total mass uptake 6.9%).

[3] = Salt screen: HT-XRPD after accelerated aging conditions; format: physicochemical; details: 14 counter ions tested; only hydrochloric acid gave such a salt
[4] = test system: adult subjects with moderate to severe atopic dermatitis; assay: Phase 2a study in moderate to severe atopic dermatitis; format: in vivo, human
Experimental: Following the phase 1 trials, a phase 2a trial was conducted to evaluate the efficacy of 8 weeks of treatment with 30 mg ZPL-389 administered once daily in adult subject with moderate to severe atopic dermatitis. The study was also designed to assess the safety and tolerability of ZPL-389 in adult subjects with moderate to severe atopic dermatitis.
This study was a randomized, double blind, placebo controlled, parallel group study of subjects having a pruritus Numerical Rating Scale (NRS) of ≧5 (0-10 scale), an Investigator's Global Assessment (IGA) ≧3 (0-3 scale), and moderate-severe AD Eczema Area and Severity Index (EASI) ≧12 and ≦48 (0-72 scale). In addition, subjective patient reported outcome instruments include: Ziarco Itch Diary (Electronic) Pruritus; 5D Pruritus Scale; Dermatology Life Quality Index (DLQI); and Patient Global Impression of Change (PGIG).
Each subject (aged 18-65 years) had one or more screening visits to confirm suitability to enter the study. 98 subjects with moderate to severe atopic dermatitis were randomized 2:1 to receive orally either 30 mg ZPL-389 or placebo once daily for eight weeks (56 days).
Efficacy endpoints for the trial include the following: • change from baseline in NRS for pruritus (worst itch) over 24 hours; • change from baseline in daytime NRS for pruritus (worst itch); • change from baseline in night time NRS for pruritus (worst itch); • change from baseline in NRS for sleep disturbance; • change from baseline in duration of itching; • change from baseline in verbal rating score for pruritus; • change from baseline in EASI score; • change from baseline in SCORAD score; • IGA score; • amount of rescue medication use; and/or • PGIC.

[5] = Phase 1 trials, single and multiple ascending doses; format: in vivo, human
Experimental: In phase 1 trials, 62 subjects were treated with ZPL-389.

[6] = test system: mild asthmatics; details: 36 mg in two single doses given 12 hours apart, oral; cited from earlier work
[7] = 30 mg orally once daily vs placebo
[8] = 30 mg orally once daily, 8 weeks

Row | XRPD 2 ([1]; 1-Butanol) | XRPD 2 ([1]; Dichloromethane) | Compound | further results
1 | Amorphous | Amorphous | O=C(O)C(O)c1ccccc1 (racemic) [DL-Mandelic acid] | 
2 | Eds1 + Eds2 | Eds1 | O=S(=O)(O)CCS(=O)(=O)O [Ethane-1,2-disulfonic acid] | 
3 | Amorphous | Amorphous | CCS(=O)(=O)O [Ethanesulfonic acid] | 
4 | Amorphous | Fum0 + Fum3 | O=C(O)/C=C/C(=O)O [Fumaric acid] | 
5 | Gen2 | Gen2 | O=C(O)c1cc(O)ccc1O [Gentisic acid] | 
6 | Gltm0 | Amorphous | N[C@@H](CCC(=O)O)C(=O)O [Glutamic acid] | 
7 | Amorphous | Amorphous | O=C(O)CNC(=O)c1ccccc1 [Hippuric acid] | 
8 | Amorphous | Amorphous | Br [Hydrobromic acid] | 
9 | Amorphous | Amorphous | O=C1O[C@H]([C@@H](O)CO)C(O)=C1O [L-Ascorbic acid] | 
10 | Asp0 | Amorphous | N[C@@H](CC(=O)O)C(=O)O [L-Aspartic acid] | 
11 | Amorphous | Amorphous | CC(O)C(=O)O (stereo not drawn) [Lactic acid] | 
12 | Amorphous | Amorphous | O=C(O)/C=C\C(=O)O [Maleic acid] | 
13 | Amorphous | Amorphous | CS(=O)(=O)O [Methanesulfonic acid] | 
14 | Nap1 + Nap0 | Amorphous | O=S(=O)(O)c1ccc2ccccc2c1 [Naphtalene-2-sulfonic acid] | 
15 | Oxa3 | Oxa3 | O=C(O)C(=O)O [Oxalic acid] | 
16 | Pho2 plus | Pho3 | O=P(O)(O)O [Phosphoric acid] | 
17 | Sal1 plus | Amorphous | O=C(O)c1ccccc1O [Salicylic acid] | 
18 | Ste0 + Ste1 | Ste0 + Ste1 | CCCCCCCCCCCCCCCCCC(=O)O [Stearic acid] | 
19 | Amorphous | Amorphous | Cc1ccc(S(=O)(=O)O)cc1 [p-Toluenesulfonic acid] | 

More lines, now with the values behind:

Row | Compound | XRPD 2 ([1]; 1-Butanol) | XRPD 2 ([1]; Dichloromethane) | further results
20 | CC(=O)Nc1ccc(C(=O)O)cc1 [4-acetamido-Benzoic acid] | ABen1 + ABen0 | ABen1 + ABen0 | 
21 | O=C(O)[C@H](O)[C@@H](O)C(=O)O [(+)-L-Tartaric acid] | Amorphous | Amorphous | 
22 | CC(=O)O [Acetic acid] | Amorphous | Amorphous | 
23 | O=S(=O)(O)c1ccccc1 [Benzenesulfonic acid] | Amorphous | Amorphous | 
24 | O=C(O)c1ccccc1 [Benzoic acid] | Ben1 + Ben2 plus | Ben1 + Ben2 plus | 
25 | O=C(O)CC(O)(CC(=O)O)C(=O)O [Citric acid] | Amorphous | Amorphous | 
26 | O=C[C@H](O)[C@@H](O)[C@H](O)[C@H](O)C(=O)O [D-Glucuronic acid] | Amorphous | Amorphous | 
27 | CN[C@@H]1CCN(c2cc(NCC3CC3)nc(N)n2)C1.O.O.O=C(O)C(O)C(O)C(=O)O [Example 4, N^4-(cyclopropylmethyl)-6-[(3R)-3-(methylamino)pyrrolidin-1-yl]pyrimidine-2,4-diamine tartrate dihydrate] |  |  | RH at which the dehydration step occurs during desorption ([2]; DVS desorption): below 10 % RH; Water uptake (mass uptake) between 0-20% RH ([2]; DVS sorption): 1.9%; total mass uptake at 20-30% RH ([2]; DVS sorption): 6.9%; weight between 30-90% RH ([2]; DVS): remains stable
28 | CN[C@@H]1CCN(c2cc(NCC3CC3)nc(N)n2)C1.Cl.Cl.O [Example 8, N^4-(cyclopropylmethyl)-6-[(3R)-3-(methylamino)pyrrolidin-1-yl]pyrimidine-2,4-diamine di-hydrochloride hydrate] |  |  | stability of two to one stoichiometric salt [3]: stable
29 | O=C(O)[C@H](O)[C@@H](O)[C@H](O)[C@H](O)CO [Gluconic acid] | Amorphous | Amorphous | 
30 | O=C(O)CCCC(=O)O [Glutaric acid] | Glut1 | Glut1 | 
31 | Cl [Hydrochloric acid] | Amorphous | Amorphous | 
32 | O=S(=O)(O)O [Sulfuric acid] | Amorphous | Amorphous | 
33 | CN[C@@H]1CCN(c2cc(NCC3CC3)nc(N)n2)C1 [ZPL-389, N^4-(cyclopropylmethyl)-6-[(3R)-3-(methylamino)pyrrolidin-1-yl]pyrimidine-2,4-diamine] |  |  | IGA remission odds ratio [4, 7]: 2.71; IGA response odds ratio [4, 7]: 2.51; Treatment Emergent Adverse Events (TEAE) between ZPL-389 and placebo [4, 8]: no differences; inflammation compared to placebo (EASI, SCORAD, BSA) [4, 8]: clinically and statistically significant decrease; subjects with clear or almost clear skin [4, 8]: 19%; tolerability / safety profile ([4]; 30 mg orally once daily, 8 weeks, comparable to placebo): well tolerated; rescue medication use ([4]; 30 mg orally once daily, 8 weeks, vs placebo): lower; IGA reduced by ([4]; 30 mg orally once daily, week 8, placebo 25%): 36%; SCORAD reduced by ([4]; 30 mg orally once daily, week 8, placebo 26%, p=0.004): 41%; EASI reduced by ([4]; 30 mg orally once daily, week 8, placebo 27%, p=0.01): 50%; BSA (Body Surface Area) affected by inflammation change from baseline ([4]; 30 mg orally once daily, week 8, placebo −12%, p=0.044): −18%; pruritus ([4]; 30 mg orally once daily, statistically significant compared to baseline): markedly reduced; absorption ([5]; phase 1 trials): rapidly absorbed; pharmacokinetics (dose proportionality) ([5]; phase 1 trials): dose-proportional; majority of observed adverse events ([5]; single ascending doses 0.01-48 mg, multiple ascending doses 5, 15, 50 mg once daily for 14 days): mild, transient, and non-dose related; tolerability ([5]; single ascending doses 0.01-48 mg, multiple ascending doses 5, 15, 50 mg once daily for 14 days, 62 subjects): safely tolerated; efficacy in mild asthma [6]: no efficacy was observed
34 | (−)-L-Malic acid | Amorphous | Amorphous | 

— patent US20170158671A1, “PYRIMIDINE COMPOSITIONS, ULTRA PURE COMPOSITIONS AND SALTS THEREOF, METHODS OF MAKING THE SAME, AND METHODS OF USING THE SAME FOR TREATING HISTAMINE H4 RECEPTOR (H4) MEDIATED DISEASES AND CONDITIONS” (Ziarco Pharma Ltd., priority 2015, published 2017)
